According to EP0705258B1, “AZOLYL-CYCLIC AMINE DERIVATIVES WITH IMMUNOMODULATORY ACTIVITY” (Knoll AG, priority 1993, dated 1995):
pIC50: −log10 of the molar value. Counter-ions that a name gives are not always drawn.

Key:
[1] = test system: lymphocyte proliferation (BALB/c responder and mitomycin C treated C57BL/6 stimulator spleen cells); test: Mixed Lymphocyte Reaction (Test A), one-way MLR, tritiated thymidine incorporation; type: cell-based, mice; conditions: Mus musculus; concentration causing 50% inhibition of lymphocyte proliferation, by linear interpolation; ≤ = active at this concentration but not tested at lower doses
Experimental: A mixed lymphocyte reaction (MLR) occurs when lymphocytes from two genetically dissimilar individuals, or inbred strains of mice are cultured together. An MLR results in the activation and proliferation of lymphocytes, which is measured by the incorporation of radiolabelled thymidine into the cellular DNA synthesised during cell division. A 'one-way' MLR is used to determine the immunosuppressive activity of test compounds in vitro. In this reaction one population of spleen cells serves as the stimulator cells and is treated with mitomycin C to prevent cell division. Spleen cells from a second allogeneic population (responder cells) are untreated and when mixed with the stimulator cells are able to undergo division which is measured. The degree of proliferation is measured in the presence and absence of test compound to assess the immunosuppressive activity of the compound.
The techniques for carrying out lymphocyte proliferation assays including MLRs are well known, eg Bradley, pages 156-166, in Mishell and Shiigi, Eds. Selected Methods in Cellular Immunology (Freeman, San Francisco, 1980); and Battisto et al, methods in Enzymology 1987; 150: 83-91. Various slight modifications of these techniques are in use and that used herein is described in Gibb, Webber and Bowen, J Immunological Methods 1985; 81: 107-113.
Cell suspensions obtained from the spleens of female BALB/c and C57BL/6 strain mice of between 6 and 9 weeks of age were used as sources of responder and stimulator cells respectively. The mice were killed using a rising concentration of CO2 and the spleens removed aseptically and teased using a scalpel and forceps to produce a single cell suspension in Hanks balanced salt solution (HBSS). The suspensions were filtered through cell strainers (Falcon), sedimented by centrifugation and resuspended in Tris-buffered ammonium chloride pH 7.2 (medium D) to lyse the erythrocytes. The cells were sedimented again and washed twice in HBSS before resuspending in complete RPMI 1640 tissue culture medium (medium E). The C57BL/6 cells were resuspended to 9 mls per spleen and a solution of mitomycin C at 400 µg/ml in medium E added to give a final concentration of 40 µg/ml. After incubation of the C57BL/6 cells at 37°C for 30 minutes in an atmosphere of 5% CO2 and 95% air, the cells were sedimented and washed 3 times in medium E. Both cell suspensions were diluted in medium E to 5 x 10^6 cells/ml. 100µl of each of the responder and stimulator cell suspensions were aliquoted into the wells of 96 well flat bottom microtitre plates containing 50 µl of test compound at an appropriate dilution (initially 50 µM diluted in medium E from a stock solution at 100 mM in dimethyl sulphoxide) giving a final test compound concentration of 10 µM (final dilution). Compounds active at this concentration were tested at further final dilution of 1 µM, 0.1 µM and 0.01 µM and 0.001 µM to determine the concentration of test compound which causes 50% inhibition of the immune response (IC50). After four days of culture at 37°C in a humidified atmosphere of 5% CO2 and 95% air, 1 µCi of tritiated thymidine in 20 µl of medium E was added to each well and the plates incubated for a further 24 hours. Cells were then harvested onto Inotech G7 glass fibre filter mats using an Inotech cell harvester. The filters were transferred to vials to which 2 ml of Packard Emulsifier-Safe scintillation fluid was added and the radioactivity from the incorporated thymidine was counted in a Packard liquid scintillation counter. The counts per minute (CPM) reflect the degree of lymphocyte proliferation. The data were analysed to determine the percentage inhibition of lymphocyte proliferation by the test compound. […]

[2] = test system: tumour necrosis factor-α (TNF-α); test: Mouse Tumour Necrosis Factor Test (Test B), mouse endotoxin shock model, serum TNF-α by ELISA; type: in vivo, BALB/c mice; conditions: Mus musculus; minimum effective oral dose giving significant reduction in serum TNF-α of ≥35%; dosed 2 h before LPS i.p.; ≤ = active at dose given but not tested at lower doses; read-out: MTNF:MED
Text: Preferred compounds of the present invention are active in an in-vivo test which determines the ability of the compounds to inhibit the release of tumour necrosis factor-α (TNF-α) in a mouse endotoxin shock model (Test B). This model is similar to that described by Zuckerman and Bendele (1989), Infection and Immunity 57 (10): p3009-3013.
Each compound of formula I was combined with a carrier of a solution of 1.5% v/v sorbitan esters under the trade name Tween 80 and 0.25% v/v cellosize in sterile water (100 µl) and was administered orally to a group of four BALB/c mice. The concentration of compound was such as to provide dosages selected from 100, 30, 10, 3, 1, 0.1 and 0.03 mg/kg. Two hours after such oral administration, lipopolysaccharide (LPS) (E. coli 0127:B8) (100 µg) in sterile water (0.2 ml) was administered intraperitoneally to the test mice.
A control group of eight BALB/c mice was treated in a similar manner as the test group except that no test compound was included with the carrier.
One hour after LPS administration the mice were killed and blood was collected by cardiac puncture. The blood was incubated at 20°C for 2 hours and the serum was separated from the clotted blood following centrifugation. Serum tumour necrosis factor-α (TNF-α) levels were assayed by an enzyme-linked immunosorbent assay (ELISA) and the concentration of TNF-α in each of the drug-treated groups was compared with the control group by one-way analysis of variance followed by a multiple t-test.
The ELISA was carried out by coating a 96-well vinyl assay plate (Costar) overnight at 4°C with 50 µl per well of 2 µg/ml hamster anti-mouse TNF monoclonal antibody in 0.1M sodium hydrogen carbonate buffer at pH 8.2. After washing the plate with phosphate buffered saline (PBS) containing 0.05% v/v sorbitan esters under the trade name Tween 20 (wash buffer), a blocking/dilution buffer (10% sheep serum in PBS containing 0.1% v/v sorbitan esters under the trade name Tween 20 (200 µl)) was aliquoted to each well and incubated at 37°C for 0.5 hours. After aspirating the blocking buffer, the serum samples and pure TNF (as a standard) diluted in blocking/dilution buffer, were added to the wells and incubated at 37°C for 2 hours. After washing with the wash buffer, a polyclonal rabbit anti-mouse TNF-α antibody in blocking/dilution buffer (100 µl of a 1 in 10,000 dilution) was added and incubated for a further 1.5 hours at 37°C. After further washes, anti-rabbit IgG peroxidase conjugate (100 µl of a 1 in 4000 dilution) was added and incubated at 37°C for 0.5 hours. After further washing, the substrate solution (100 µl per well of 0.1 mg/ml 3,3', 5,5'-tetramethylbenzidine dihydrochloride in 0.1M phosphate citrate buffer, pH 5.0, to which 2 µl of 30% hydrogen peroxide per 10 ml was added just before use) was added and the colour allowed to develop. The reaction was stopped by the addition of 1M sulphuric acid (25 µl) and the optical density read in a multichannel spectrophotometer at 450 nm. The mean TNF-α concentration was determined by comparison with the standard curve and the mean TNF-α concentration for each group compared with that produced by the control group. Drug treatments which cause a statistically significant reduction in TNF-α concentration of ≥35% at a single dose at 100 mg/kg or less were considered active.

| Compound | pIC50 [1] | minimal effective dose [2] [mg/kg] |
| --- | --- | --- |
| c1ccc(CCCN2CCC(CCCn3ccnc3)CC2)cc1 [Example 104, 4-[3-(Imidazol-1-yl)propyl]-1-(3-phenylpropyl)piperidine] | ≥ 6.00 | ≤ 100 |
| O=C(CCc1ccccc1)N1CCCC(Cn2ccnc2)C1 (stereo not drawn) [Example 53, 3-Imidazol-1-ylmethyl-1-(3-phenylpropionyl)-piperidine] | – | 30 |
| CC(C)c1nccn1CCC1CCN(C(=O)CCc2ccccc2)CC1 [Example 58, 4-[2-(2-Isopropylimidazol-1-yl)ethyl]-1-(3-phenylpropionyl)piperidine] | 8.40 | – |
| O=C(CCN1CCC(CCn2ccnc2)CC1)c1ccccc1 [Example 89, 4-[2-(Imidazol-1-yl)ethyl]-1-(3-oxo-3-phenylpropyl)piperidine] | – | ≤ 30 |
| CC(CCN1CCC(CCn2ccnc2)CC1)c1ccccc1 (stereo not drawn) [Example 126, 4-[2-(Imidazol-1-yl)ethyl]-1-(3-phenylbutyl)piperidine] | 5.43 | ≤ 100 |
| COc1ccc(CCCN2CCC(CCn3ccnc3)CC2)cc1 [Example 124, 4-[2-(Imidazol-1-yl)ethyl]-1-[3-(4-methoxyphenyl)propyl]piperidine] | – | ≤ 30 |
| Cl.Cl.O=C(CCc1ccccc1)N1CCCCC1CCn1ccnc1 (stereo not drawn) [Example 52, 2-[2-(Imidazol-1-yl)ethyl]-1-(3-phenylpropionyl)piperidine dihydrochloride] | – | 100 |
| c1ccc(CCCN2CCC(CCn3ncnn3)CC2)cc1 [Example 121, 1-(3-Phenylpropyl)-4-[2-(2H-tetrazol-2-yl)ethyl]piperidine] | ≥ 6.00 | 100 |
| c1ccc(CCCN2CCC(CCn3ccnn3)CC2)cc1 [Example 119, 1-(3-Phenylpropyl)-4-[2-(1H-1,2,3-triazol-1-yl)ethyl]piperidine] | 5.62 | – |
| Cc1nccn1CCC1CCN(C(=O)CCCc2ccccc2)CC1 [Example 82, 4-[2-(2-Methylimidazol-1-yl)ethyl]-1-(4-phenylbutyroyl)piperidine] | ≥ 6.00 | – |
| Cc1ccc(CCC(=O)N2CCC(CCn3ccnc3C)CC2)cc1 [Example 94, 4-[2-(2-methylimidazol-1-yl)ethyl]-1[3-(4-methylphenyl)propionyl]piperidine] | ≥ 6.00 | – |
| O=C(CCc1ccccc1)N1CCC(CCCn2ccnc2)CC1 [Example 56, 4-[3-(Imidazol-1-yl)propyl]-1-(3-phenylpropionyl)piperidine] | ≥ 6.00 | – |
| Cc1nc2ccccc2n1CCC1CCN(C(=O)CCc2ccccc2)CC1 [Example 65, 2-Methyl-1-{2-[1-(3-phenylpropionyl)-piperidin-4-yl]ethyl}benzimidazole] | 5.42 | – |
| c1ccc(CCCN2CCN(CCn3ccnc3)CC2)cc1 [Example 95, 1-[2-imidazol-1-yl)ethyl]-4-(3-phenylpropyl)piperazine trihydrochloride] | 5.55 | ≤ 3 |
| O=C(CCCc1ccccc1)N1CCC(CCn2ccnc2)CC1 [Example 85, 4-[2-(Imidazol-1-yl)ethyl]-1-(4-phenylbutyroyl)piperidine] | 6.22 | – |
| O=C(c1ccccc1Cl)c1nccn1CCC1CCN(CCCc2ccccc2)CC1 [Example 92, 4-{2-[2-(2-Chlorobenzoyl)imidazol-1-yl]-ethyl}-1-(3-phenylpropyl)piperidine] | – | ≤ 10 |
| Cc1nccn1CCC1CCN(CCCc2ccc(Cl)cc2)CC1 [Example 105, 1-[3-(4-Chlorophenyl)propyl]-4-[2-(2-methylimidazol-1-yl)ethyl]piperidine] | ≥ 6.00 | – |
| c1ccc(CCCN2CCC(CCn3cncn3)CC2)cc1 [Example 111, 1-(3-Phenylpropyl)-4-[2-(1H-1,2,4-triazol-1-yl)ethyl]piperidine] | 5.14 | ≤ 10 |
| O=C(CCc1ccccc1)N1CCC(CCn2ccnc2)CC1 [Example 50, 4-[2-(imidazol-1-yl)ethyl]-1-(3-phenylpropionyl)piperidine] | 6.70 | – |
| c1ccc2c(c1)CCC(CN1CCC(CCn3ccnc3)CC1)C2 (stereo not drawn) [Example 125, 4-[2-(Imidazol-1-yl)ethyl]-1-(1,2,3,4-tetrahydronaphth-2-ylmethyl)piperidine] | 5.66 | 30 |
| Cc1nccn1CCC1CCN(C(=O)CCc2ccc(Cl)cc2)CC1 [Example 57, 1-[3-(4-Chlorophenyl)propionyl]-4-[2-(2-methylimidazol-1-yl)ethyl]piperidine] | ≥ 6.00 | 100 |
| c1ccc(CCCN2CCC(CCn3cnc(-c4ccccc4)c3-c3ccccc3)CC2)cc1 [Example 108, 4-[2-(4,5-Diphenylimidazol-1-yl)ethyl]-1-(3-phenylpropyl)piperidine] | 5.92 | – |
| c1ccc(CCCC2CCN(CCn3cncn3)CC2)cc1 [Example 97, 1-[2-(1H-1,2,4-triazol-1-yl)ethyl]-4-(3-phenylpropyl)-piperidine dihydrochloride] | 5.64 | – |
| CCCCCCCCCCCc1nccn1CCC1CCN(C(=O)CCc2ccccc2)CC1 [Example 62, 1-(3-Phenylpropionyl)-4-[2-(2-undecylimidazol-1-yl)ethyl]piperidine] | 5.72 | – |
| CCc1nccn1CC1CCN(C(=O)CCc2ccccc2)CC1 [Example 66, 4-(2-Ethylimidazol-1-ylmethyl)-1-(3-phenylpropionyl)piperidine] | ≥ 6.00 | – |
| Cc1nccn1CCC1CCN(C(=O)CCc2ccccc2)CC1 [Example 72, 4-[2-(2-Methylimidazol-1-yl)ethyl]-1-(3-phenylpropionyl)piperidine] | 7.52 | – |
